# In patent US20260144805A1, “CANNABIDIOL COMPOSITIONS FOR USE IN THE TREATMENT OF NEURODEGENERATIVE AND NEUROLOGICAL DISORDERS” (JAZZ PHARMACEUTICALS RESEARCH UK LIMITED, priority 2022, published 2026):
# Columns and labels:
# [1] = test system: harmaline model of Essential Tremor; assay: Harmaline model of Essential Tremor, subjective tremor score 0-4 (Example 3; DS = DS-D); assay type: in vivo, rat; conditions: Propranolol 40 mg/kg i.p.
# Method: All experiments were carried out in male Sprague Dawley rats (˜250 g). Naïve rats were acclimatised to the procedure room in their home cages up to 7 days following arrival at the test facility, with food and water available ad libitum. All animals were weighed at the beginning of the study and assigned to treatment groups (Vehicle n=6, treatment groups n=12/group).
# Animals were dosed and tested as per Table G below, across 3 test days. Treatment groups were equally allocated across the 3 days of testing. The animals received either vehicle, DS at 30, 100 or 150 mg/kg (1 mL/kg, i.p.) or propranolol at 40 mg/kg (5 mL/kg, i.p.) (Compound 1), the animals were then dosed with vehicle or Harmaline at 10 mg/kg (5 mL/kg, i.p.) (Compound 2). The animals received DS at 30, 100 or 150 mg/kg (1 mL/kg, i.p.) 40 or 100 min before harmaline, with the first test point 20 mins later to give a pre-treatment time at first test point of 60 and 120 mins. Propanolol was dosed 30 min before harmaline and tested 20, 40 and 60 mins post-harmaline. At all test points post-harmaline, the animals were observed and given a tremor score of 0-4 (as per Table H).
# Drug substance (i.e., DS-D, as described in Example 1) was formulated in 1:12:87 Ethanol, Kolliphor HS & Saline.
# Propranolol (40 mg/kg i.p.) served as a disease-relevant comparator.
# 30 mg/kg drug substance required 1 hr pre-treatment whilst 100 and 150 mg/kg drug substance required 2 hr pre-treatment.
# Behavioural observation data was analysed using a repeated measures two-way ANOVA followed by Dunnett's multiple comparison analysis (GraphPad, Prism v9.0.0) (p<0.05 considered significant).
# [2] = test system: valproic acid-induced autism spectrum disorder (ASD) mouse model; assay: Valproic acid-induced ASD model, bottle-brush test (irritability) (Example 6, Table P); assay type: in vivo; design: key: +: improvement; Ø: no change; −: not tested
# Source text: (§1) The main objective of the following study was to assess the effect of the drug substance (DS) of Example 1 in ameliorating autism-like behavior in valproic acid-induced autism spectrum disorder (ASD) mouse model (FIGS. 19A-B).
# [3] = test system: valproic acid-induced autism spectrum disorder (ASD) mouse model; assay: Valproic acid-induced ASD model, social behavior (Example 6, Table P); assay type: in vivo; design: key: +: improvement; Ø: no change; −: not tested
# Source text: as §1
# [4] = test system: rat model of essential tremor; assay: Harmaline rat model of essential tremor, tremor plate: motion power percentage, tremor index, number of tremors, time in tremor, tremor length (Example 4); assay type: in vivo; design: key to Motion Power Percentage, significance vs harmaline + vehicle / Number of tremors, significance vs harmaline + vehicle / Total time in tremor, significance vs harmaline + vehicle / Average tremor length, significance vs harmaline + vehicle: ns = not significant; *, **, ***, **** = statistical significance at p < 0.05, 0.01, 0.001, 0.0001 respectively; *, **, ***, **** = statistical significance at p < 0.05, 0.01, 0.001, 0.0001 respectively; *, **, ***, **** = statistical significance at p < 0.05, 0.01, 0.001, 0.0001 respectively; *, **, ***, **** = statistical significance at p < 0.05, 0.01, 0.001, 0.0001 respectively; conditions: for Average tremor length, significance vs harmaline + vehicle / Number of tremors, significance vs harmaline + vehicle / Total time in tremor, significance vs harmaline + vehicle / Motion Power Percentage, significance vs harmaline + vehicle: I.P.
# Source text: (§2) The following study was designed to assess the drug substance (DS) efficacy in the rat model of essential tremor. Synthetic CBD (sCBD I.P.) and DS I.P. and DS. P.O and compared observing tremor score, motion power percentage (MPP), tremor index (TI), number of tremors, total time spent in tremor, and average tremor length.
# (§3) The results are summarized in Tables J-M. All comparisons were made to the harmaline+vehicle group within each study.
# [5] = test system: rat model of essential tremor; assay: Harmaline rat model of essential tremor, observed tremor score (Example 4); assay type: in vivo; design: key to Observed tremor score, significance vs harmaline + vehicle: ns = not significant; *, **, ***, **** = statistical significance at p < 0.05, 0.01, 0.001, 0.0001 respectively; *, **, ***, **** = statistical significance at p < 0.05, 0.01, 0.001, 0.0001 respectively; *, **, ***, **** = statistical significance at p < 0.05, 0.01, 0.001, 0.0001 respectively; *, **, ***, **** = statistical significance at p < 0.05, 0.01, 0.001, 0.0001 respectively; conditions: for Observed tremor score, significance vs harmaline + vehicle: I.P.
# Source text: as §2, §3
# [6] = test system: valproic acid-induced autism spectrum disorder (ASD) mouse model; assay: Valproic acid-induced ASD model, autism-like behaviors, DS vs sCBD and risperidone (Example 6, Table P); assay type: in vivo; design: key to Adult open field hyperactivity (spontaneous LMA on day 1) / Adult open field hyperactivity (LMA on day 2) / Adult marble burying / Adult grooming / Juvenile vocalisation: +: improvement; Ø: no change; −: not tested
# Source text: as §1
smiles,measurement,setting,value
CC(C)NCC(O)COc1cccc2ccccc12 (centres unmarked) [Propranolol],deficits induced by harmaline vs vehicle/harmaline group,"[1]; 20, 40 and 60 min post-harmaline",significantly attenuated
same,Tremor Score (median ± IQR),[1]; 20 mins post-harmaline,0.0 ± 0.0
same,Tremor Score (median ± IQR),[1]; 40 mins post-harmaline,0.0 ± 0.0
same,Tremor Score (median ± IQR),[1]; 60 mins post-harmaline,0.0 ± 0.75
"C=C(C)[C@@H]1CCC(C)=C[C@H]1c1c(O)cc(CCCCC)cc1O [sCBD, 2-[(1R,6R)-3-Methyl-6-(1-methylethenyl)-2-cyclohexen-1-yl]-5-pentyl-1,3-benzenediol]",Adult bottle brush irritability test,[2]; 9.21 mg/kg I.P.,Ø
same,Juvenile bottle brush irritability test,[2]; 9.21 mg/kg I.P.,Ø
same,Adult bottle brush irritability test,[2]; 27.63 mg/kg I.P.,Ø
same,Juvenile bottle brush irritability test,[2]; 27.63 mg/kg I.P.,+
same,Adult bottle brush irritability test,[2]; 92.11 mg/kg I.P.,+
same,Juvenile bottle brush irritability test,[2]; 92.11 mg/kg I.P.,+
same,Adult active social behavior,[3]; 9.21 mg/kg I.P.,Ø
same,Juvenile play behavior,[3]; 9.21 mg/kg I.P.,Ø
same,Adult active social behavior,[3]; 27.63 mg/kg I.P.,Ø
same,Juvenile play behavior,[3]; 27.63 mg/kg I.P.,Ø
same,Adult active social behavior,[3]; 92.11 mg/kg I.P.,+
same,Juvenile play behavior,[3]; 92.11 mg/kg I.P.,+
same,"Average tremor length, significance vs harmaline + vehicle",[4]; dose 9.1 mg/kg,ns
same,"Number of tremors, significance vs harmaline + vehicle",[4]; dose 9.1 mg/kg,ns
same,"Total time in tremor, significance vs harmaline + vehicle",[4]; dose 9.1 mg/kg,ns
same,"Motion Power Percentage, significance vs harmaline + vehicle","[4]; dose 9.1 mg/kg, 20 min",ns
same,"Motion Power Percentage, significance vs harmaline + vehicle","[4]; dose 9.1 mg/kg, 40 min",ns
same,"Motion Power Percentage, significance vs harmaline + vehicle","[4]; dose 9.1 mg/kg, 60 min",ns
same,"Average tremor length, significance vs harmaline + vehicle",[4]; dose 27.3 mg/kg,ns
same,"Number of tremors, significance vs harmaline + vehicle",[4]; dose 27.3 mg/kg,ns
same,"Total time in tremor, significance vs harmaline + vehicle",[4]; dose 27.3 mg/kg,ns
same,"Motion Power Percentage, significance vs harmaline + vehicle","[4]; dose 27.3 mg/kg, 20 min",ns
same,"Motion Power Percentage, significance vs harmaline + vehicle","[4]; dose 27.3 mg/kg, 40 min",ns
same,"Motion Power Percentage, significance vs harmaline + vehicle","[4]; dose 27.3 mg/kg, 60 min",ns
same,"Average tremor length, significance vs harmaline + vehicle",[4]; dose 54.7 mg/kg,ns
same,"Number of tremors, significance vs harmaline + vehicle",[4]; dose 54.7 mg/kg,ns
same,"Total time in tremor, significance vs harmaline + vehicle",[4]; dose 54.7 mg/kg,ns
same,"Motion Power Percentage, significance vs harmaline + vehicle","[4]; dose 54.7 mg/kg, 20 min",ns
same,"Motion Power Percentage, significance vs harmaline + vehicle","[4]; dose 54.7 mg/kg, 40 min",ns
same,"Motion Power Percentage, significance vs harmaline + vehicle","[4]; dose 54.7 mg/kg, 60 min",ns
same,"Average tremor length, significance vs harmaline + vehicle",[4]; dose 91.1 mg/kg,ns
same,"Number of tremors, significance vs harmaline + vehicle",[4]; dose 91.1 mg/kg,ns
same,"Total time in tremor, significance vs harmaline + vehicle",[4]; dose 91.1 mg/kg,ns
same,"Motion Power Percentage, significance vs harmaline + vehicle","[4]; dose 91.1 mg/kg, 20 min",ns
same,"Motion Power Percentage, significance vs harmaline + vehicle","[4]; dose 91.1 mg/kg, 40 min",ns
same,"Motion Power Percentage, significance vs harmaline + vehicle","[4]; dose 91.1 mg/kg, 60 min","* (*, **, ***, **** = statistical significance at p < 0.05, 0.01, 0.001, 0.0001 respectively)"
same,Dose (as CBD) from which MPP and TI were significantly reduced,"[4]; intraperitoneal, sCBD only at one time point (60 min)",91 mg/kg
same,Minimum dose (as CBD) decreasing the observed tremor score,"[5]; DS oral and intraperitoneal, sCBD i.p.",27 mg/kg
same,"Observed tremor score, significance vs harmaline + vehicle","[5]; dose 9.1 mg/kg, 20 min",ns
same,"Observed tremor score, significance vs harmaline + vehicle","[5]; dose 9.1 mg/kg, 40 min",ns
same,"Observed tremor score, significance vs harmaline + vehicle","[5]; dose 9.1 mg/kg, 60 min",ns
same,"Observed tremor score, significance vs harmaline + vehicle","[5]; dose 27.3 mg/kg, 20 min",ns
same,"Observed tremor score, significance vs harmaline + vehicle","[5]; dose 27.3 mg/kg, 40 min","* (*, **, ***, **** = statistical significance at p < 0.05, 0.01, 0.001, 0.0001 respectively)"
same,"Observed tremor score, significance vs harmaline + vehicle","[5]; dose 27.3 mg/kg, 60 min","* (*, **, ***, **** = statistical significance at p < 0.05, 0.01, 0.001, 0.0001 respectively)"
same,"Observed tremor score, significance vs harmaline + vehicle","[5]; dose 54.7 mg/kg, 20 min","** (*, **, ***, **** = statistical significance at p < 0.05, 0.01, 0.001, 0.0001 respectively)"
same,"Observed tremor score, significance vs harmaline + vehicle","[5]; dose 54.7 mg/kg, 40 min","* (*, **, ***, **** = statistical significance at p < 0.05, 0.01, 0.001, 0.0001 respectively)"
same,"Observed tremor score, significance vs harmaline + vehicle","[5]; dose 54.7 mg/kg, 60 min","* (*, **, ***, **** = statistical significance at p < 0.05, 0.01, 0.001, 0.0001 respectively)"
same,"Observed tremor score, significance vs harmaline + vehicle","[5]; dose 91.1 mg/kg, 20 min","* (*, **, ***, **** = statistical significance at p < 0.05, 0.01, 0.001, 0.0001 respectively)"
same,"Observed tremor score, significance vs harmaline + vehicle","[5]; dose 91.1 mg/kg, 40 min",ns
same,"Observed tremor score, significance vs harmaline + vehicle","[5]; dose 91.1 mg/kg, 60 min",ns
same,Adult grooming,[6]; 9.21 mg/kg I.P.,+
same,Adult marble burying,[6]; 9.21 mg/kg I.P.,Ø
same,Adult open field hyperactivity (LMA on day 2),[6]; 9.21 mg/kg I.P.,Ø
same,Adult open field hyperactivity (spontaneous LMA on day 1),[6]; 9.21 mg/kg I.P.,+
same,Adult grooming,[6]; 27.63 mg/kg I.P.,+
same,Adult marble burying,[6]; 27.63 mg/kg I.P.,+
same,Adult open field hyperactivity (LMA on day 2),[6]; 27.63 mg/kg I.P.,+
same,Adult open field hyperactivity (spontaneous LMA on day 1),[6]; 27.63 mg/kg I.P.,+
same,Adult grooming,[6]; 92.11 mg/kg I.P.,+
same,Adult marble burying,[6]; 92.11 mg/kg I.P.,+
same,Adult open field hyperactivity (LMA on day 2),[6]; 92.11 mg/kg I.P.,+
same,Adult open field hyperactivity (spontaneous LMA on day 1),[6]; 92.11 mg/kg I.P.,+
same,Juvenile vocalisation,[6]; 92.11 mg/kg I.P.,+
same,minimum effective dose in social behavior and after the bottle-brush test (irritability),[6]; i.p.,92.11 mg/kg
